Results from patent publication US20010018051A1, “Inhibition of allograft and concordant xenograft rejection” (priority 1990, published 2001).

Tests used:
rabbit kidney xenografts = settings: rabbit kidney into cats; cited from earlier work
[1] = assay type: in vivo; settings: doses of 2 mg/kg
Text: (§1) The minimum dosage of cobra venom factor is species dependent and can readily be determined by the CH50 assay. […] Effective and non-toxic dosages of other complement inhibitors can also readily be determined by those skilled in the art, for example, using the CH50 assay.

complement activity = experiment: onset and duration of cobra venom factor activity after intramuscular administration; assay type: in vivo
Procedure: as §1
Cobra venom factor takes about 6 hours for its initial activity to take effect after intramuscular administration. Once the initial activity is observed, it can last for more than 1 day, for example 2 days, and so daily administration of cobra venom factor may not be necessary. In fact, it is preferred to administer cobra venom factor on alternate days, in which case the preferred daily dosages given above will be doubled on the day of administration.

hamster heart xenograft = hamster heart xenograft survival in rats; assay type: in vivo, rat; settings: hamster heart in DA rats; i.m. on alternate days from time of transplantation (cyclosporin A 20 mg/kg, cobra venom factor 0.4 mg/kg)
Text: All other cardiac vessels were ligated.
Injections were given on alternate days thereafter.

Compound: C[C@H](CS)C(=O)N1CCC[C@H]1C(=O)O [captopril]
- prevention of hyperacute rejection (rabbit kidney xenografts): not prevented

Compound: CCOC(=O)[C@H](CCc1ccccc1)N[C@@H](C)C(=O)N1CCC[C@H]1C(=O)O [enalapril]
- prevention of hyperacute rejection (rabbit kidney xenografts): not prevented

Compound: CCCCC[C@H](O)/C=C/[C@@H]1[C@H]2C/C(=C/CCCC(=O)O)O[C@H]2C[C@H]1O [prostacyclin]
- prevention of hyperacute rejection (rabbit kidney xenografts): not prevented

Compound: O=C(O)c1cc(=O)c2c(OCC(O)COc3cccc4oc(C(=O)O)cc(=O)c34)cccc2o1 [sodium chromoglycate]
- prevention of hyperacute rejection (rabbit kidney xenografts): not prevented

Compound: cobra venom factor
- toxicity [1]: do not appear to be toxic
- duration of activity once observed (complement activity): more than 1 day
- time for initial activity to take effect (complement activity): about 6 hours
- prolongation in graft survival (rabbit kidney xenografts): up to seven days
- median graft survival rate (hamster heart xenograft): 6 days
